In one test the test system is Aβ42. Description: Aβ42 cellular assay: inhibition of Aβ42 production in H4 neuroglioma cells stably expressing human APP695, electrochemiluminescence (Meso Scale Discovery) on supernatant. Conditions: 22 hours incubation, tested range 30 µM to 0.1 nM. The format is cell-based. The procedure: (§1) Cells were plated out to near confluency. The compounds to be tested were received as 10 mM stocks in 100% DMSO. A dilution series was initially generated in 100% DMSO and then diluted 200-fold in cell culture media such that the tested concentration range was 30 µM to 0.1 nM and the final DMSO concentration was 0.5%. The diluted compounds were incubated with the cells for 22 hours in an incubator at 37°C and 5% CO2. Aβ42 as well as Aβ total levels were then measured post-incubation from the supernatant of the cells. Aβ42 levels were determined using a specific electrochemiluminescence assay provided by Meso Scale Discovery (Catalog # L21CA-1) according to the manufacturer's protocol. Aβ total levels were likewise determined using a specific electrochemiluminescence assay provided by Meso Scale Discovery (Catalog # L21ZA-1) according to the manufacturer's protocol.
(§2) In order to absolutely define the described compounds as modulators of y-Secretase as opposed to simply inhibitors of γ-Secretase, measurements of not only Aβ42 but also Aβ total are performed.

A further test relates to Aβ total. Description: Aβ total cellular assay: inhibition of Aβ total production in H4 neuroglioma cells stably expressing human APP695, electrochemiluminescence (Meso Scale Discovery) on supernatant; used for the ratio Aβ total IC50 / Aβ42 IC50. The test is classed as cell-based. To be noted: higher ratio = more specific inhibition of Aβ42. As for the experimental part: as §1, §2

Experimental findings from patent publication EP2958918B1, “DIHYDROPTERIDINONES II” (Boehringer Ingelheim International GmbH, priority 2013, dated 2014) are described below.

Some results are limits rather than exact numbers.

As to `Cc1ncc(-c2ccc(Nc3ncc4c(n3)N(C)C3(CCOC3)C(=O)N4C)cn2)o1` (stereo not shown) [Example 8], the IC50 (in general, the midpoint of a concentration-inhibition curve) in the test on Aβ42 stood at 3000 nM. Further, the “Ratio Aß(total)/Aß42” value in the test on Aβ total is listed as >10.
In the test on Aβ42, `CCc1nc(Nc2ccc(-n3cnc(C)c3)c(OC)c2)nc2c1N(C)C(=O)C1(CCOC1)N2C` (stereo not shown) [Example 34] came in with a concentration for half-maximal inhibition (IC50) of 73 nM. Moreover, the “Ratio Aß(total)/Aß42” value in the test with Aβ total is 115.
Take `COc1cc(Nc2nc(CC(C)C)c3c(n2)NC2(CCOC2)C(=O)N3)ccc1-n1cnc(C)c1` (stereo not shown) [Example 33]: the half-maximal inhibitory concentration (IC50) with Aβ42 came out at 140 nM. Besides, the “Ratio Aß(total)/Aß42” value in the test on Aβ total turned out to be 124.
In turn, `COCCN1C(=O)C2(CCOCC2)N(C)c2nc(Nc3ccc(-c4ccnc(C)c4)cc3)ncc21` [Example 12] registered an IC50 in the test on Aβ42 of 1900 nM. Also, the “Ratio Aß(total)/Aß42” value in the test with Aβ total stood at 11.
`COc1cc(Nc2ncc3c(n2)N(C)C2(CCOC2)C(=O)N3c2ccc(C(F)(F)F)cn2)ccc1-n1cnc(C)c1` (stereo not shown) [Example 48]: half-maximal inhibition in the test with Aβ42 (IC50) was put at 389 nM. The “Ratio Aß(total)/Aß42” value in the test with Aβ total is listed as 22.
In the case of `COc1cc(Nc2ncc3c(n2)N(C)C2(CCCC2)C(=O)N3C)ccc1-n1cnc(C)c1` [Example 53], the IC50 in the test on Aβ42 was 40 nM. In addition, the “Ratio Aß(total)/Aß42” value in the test with Aβ total is recorded as 132.
With `COc1cc(Nc2ncc3c(n2)N(C)C2(CCC2)C(=O)N3CC(F)(F)F)ccc1-c1cnc(C)o1` [Example 45], it took 58 nM to reach half-maximal inhibition with Aβ42 (IC50). In the test with Aβ total, the “Ratio Aß(total)/Aß42” value is listed as > 517.
In the test with Aβ42, `COc1cc(Nc2ncc3c(n2)NC2(CCOC2)C(=O)N3C2COC2)ccc1-n1cnc(C)c1` (stereo not shown) [Example 28] gave an IC50 of 10500 nM. Moreover, the “Ratio Aß(total)/Aß42” value in the test on Aβ total was >3.
For `COc1cc(Nc2nc(CC(C)C)c3c(n2)N(C)C2(CCOC2)C(=O)N3C)ccc1-n1cnc(C)c1` (stereo not shown) [Example 32] the same measures were 79 nM and 124.
Turning to `COc1cc(Nc2ncc3c(n2)N(C)C2(CCOCC2)C(=O)N3C)ccc1-c1cnc(C)o1` [Example 1], in the test on Aβ42, the IC50 was determined as 120 nM. The “Ratio Aß(total)/Aß42” value in the test with Aβ total is listed as > 244.
In the test with Aβ42, `COc1cc(Nc2ncc3c(n2)N(C)C2(CCOC2)C(=O)N3CC(F)(F)F)ccc1-n1cnc(C)c1` (stereo not shown) [Example 37e] returned an IC50 of 86 nM. In the test with Aβ total, the “Ratio Aß(total)/Aß42” value is given as 82.
As to `COc1cc(Nc2ncc3c(n2)N(C)C2(CCOC2)C(=O)N3c2ccc(F)cc2)ccc1-n1cnc(C)c1` (stereo not shown) [Example 37a], in the test on Aβ42, half-maximal inhibition (IC50) required 60 nM. Also, in the test on Aβ total, the “Ratio Aß(total)/Aß42” value was found to be 307.
The compound `COc1cc(Nc2ncc3c(n2)N(C)C2(CCOCC2)C(=O)N3C2CC2)ccc1-n1cnc(C)c1` [Example 37b] registered an IC50 in the test with Aβ42 of 172 nM. The “Ratio Aß(total)/Aß42” value in the test with Aβ total turned out to be 47.
Consider `COc1cc(Nc2ncc3c(n2)N(C)C2(CCOCC2)C(=O)N3c2cc(F)cc(F)c2)ccc1-n1cnc(C)c1` [Example 37c], for which half-maximal inhibition with Aβ42 (IC50) required 116 nM. Further, the “Ratio Aß(total)/Aß42” value with Aβ total was 75.
As for `COc1cc(Nc2ncc3c(n2)N(C)C2(CC2)C(=O)N3c2ccc(F)cc2)ccc1-n1cnc(C)c1` [Example 46], in the test with Aβ42, the IC50 is 98 nM. Also, the “Ratio Aß(total)/Aß42” value with Aβ total was > 306.
`COCCN1C(=O)C2(CCOC2)N(C)c2nc(Nc3ccc(-n4cnc(C)n4)c(OC)c3)ncc21` (stereo not shown) [Example 15] returned an IC50 in the test on Aβ42 of 2100 nM. Moreover, the “Ratio Aß(total)/Aß42” value with Aβ total is >15.
On to `COc1cc(Nc2ncc3c(n2)N(C)C2(CC2)C(=O)N3CC(F)(F)F)cnc1-n1cnc(C)c1` [Example 50], for which, in the test on Aβ42, the IC50 was determined as 204 nM. Besides, the “Ratio Aß(total)/Aß42” value in the test with Aβ total is > 147.
